Assays:
MOLM-13 [1] = test: Cytotoxicity against human MOLM13 cells assessed as reduction in cell viability incubated for 24 hrs under 19% O2 condition by WST-1 assay; format: functional, cell-based; conditions: MOLM-13, 24 h
MOLM-13 [2] = test: Cytotoxicity against human MOLM13 cells assessed as reduction in cell viability incubated for 24 hrs under 2% O2 condition by WST-1 assay; format: functional, cell-based; conditions: MOLM-13, 24 h
H9c2 [3] = test: Cytotoxicity against rat H9c2 cells assessed as reduction in cell viability incubated for 24 hrs under 19% O2 condition by WST-1 assay; format: cell-based; conditions: H9c2, 24 h
NRK [4] = test: Cytotoxicity against rat NRK cells assessed as reduction in cell viability incubated for 24 hrs under 2% O2 condition by WST-1 assay; format: cell-based
NRK [5] = test: Cytotoxicity against rat NRK cells assessed as reduction in cell viability incubated for 24 hrs under 19% O2 condition by WST-1 assay; format: cell-based
[6] = Selectivity index, ratio of EC50 for rat NRK cells to EC50 for human MOLM13 cells; format: toxicity; conditions: NRK cells versus MOLM13 cells, read-out: Ratio EC50
[7] = Selectivity index, ratio of EC50 for rat H9c2 cells to EC50 for human MOLM13 cells; format: toxicity; conditions: H9c2 cells versus MOLM13 cells, read-out: Ratio EC50
[8] = Solubility of the compound in DMSO; format: physicochemical
NRK [9] = test: Cytotoxicity against rat NRK cells assessed as reduction in cell viability incubated for 24 hrs under 19% O2 condition by Hoechst 33342 staining based microscopic analysis
H9c2 [10] = test: Cytotoxicity against rat H9c2 cells assessed as reduction in cell viability incubated for 24 hrs under 19% O2 condition by Hoechst 33342 staining based microscopic analysis; conditions: H9c2, 24 h
NRK [11] = test: Cytotoxicity against rat NRK cells assessed as reduction in cell viability incubated for 24 hrs under 2% O2 condition by Hoechst 33342 staining based microscopic analysis
[12] = Selectivity index, ratio of EC50 for rat NRK cells to EC50 for human MOLM13 cells under 19% O2 condition; format: toxicity; conditions: NRK cells versus MOLM13 cells, read-out: Ratio EC50
[13] = Selectivity index, ratio of EC50 for rat NRK cells to EC50 for human MOLM13 cells under 2% O2 condition; format: toxicity; conditions: NRK cells versus MOLM13 cells, read-out: Ratio EC50

Structure (SMILES)	EC50 (MOLM-13 [1]) [µM]	EC50 (MOLM-13 [2]) [µM]	EC50 (H9c2 [3]) [µM]	EC50 (NRK [4]) [µM]	EC50 (NRK [5]) [µM]	selectivity ratio [6]	selectivity ratio [7]	solubility [8]	EC50 (NRK [9]) [µM]	EC50 (H9c2 [10]) [µM]	EC50 (NRK [11]) [µM]	selectivity ratio [12]	selectivity ratio [13]
Cc1cc2c(cc1C)[n+]([O-])c1c(OC(=O)N3CCN(C)CC3)cccc1[n+]2[O-]	0.63	0.54	9.4	13	12	–	–	–	–	–	–	–	–
COc1cccc2c1[n+]([O-])c1cccc(OC(=O)N3CCCC3)c1[n+]2[O-]	2	1.8	35	35	32	> 15	> 15	–	–	–	–	–	–
Cc1c(C)[n+]([O-])c2c(O)cccc2[n+]1[O-]	> 200	> 200	–	–	–	–	–	–	–	–	–	–	–
COc1cccc2c1[n+]([O-])c1cccc(OC(=O)N(C)C)c1[n+]2[O-]	1.9	1.7	35	29	22	> 15	> 15	–	–	–	–	–	–
[O-][n+]1c2ccccc2[n+]([O-])c2c(O)cccc21	11	12	> 100	> 100	79	–	–	–	–	–	–	–	–
Cc1c(C)[n+]([O-])c2c(OC(=O)N3CCOCC3)cccc2[n+]1[O-]	> 200	> 200	–	–	–	–	–	–	–	–	–	–	–
CCOC(=O)Oc1cccc2c1[n+]([O-])c1cccc(O)c1[n+]2[O-]	50	66	> 100	–	–	–	–	–	–	–	–	–	–
CCOC(=O)COc1cccc2c1[n+]([O-])c1ccccc1[n+]2[O-]	1.5	1.7	20	25	26	–	–	–	–	–	–	–	–
CN1CCN(C(=O)Oc2cccc3c2[n+]([O-])c2cc(Br)c(Br)cc2[n+]3[O-])CC1	0.41	0.23	2.2	7.6	6.2	–	–	–	–	–	–	–	–
CN(C)C(=O)Oc1cccc2c1[n+]([O-])c1ccccc1[n+]2[O-]	1.3	2.1	16	25	19	–	–	–	–	–	–	–	–
CCOC(=O)COc1cccc2c1[n+]([O-])c1cccc(O)c1[n+]2[O-]	–	–	15	18	12	–	–	–	–	–	–	–	–
[O-][n+]1c2cc3ccccc3cc2[n+]([O-])c2c(O)cccc21	–	> 10	–	–	–	–	–	Insoluble	–	–	–	–	–
[O-][n+]1c2cccc(O)c2[n+]([O-])c2cccc(O)c21	–	–	> 50	> 50	> 50	–	–	–	–	–	–	–	–
Cc1c(C)[n+]([O-])c2c(OC(=O)N3CCN(C)CC3)cccc2[n+]1[O-]	> 200	> 200	–	–	–	–	–	–	–	–	–	–	–
CN1CCN(C(=O)Oc2cccc3c2[n+]([O-])c2cccc(O)c2[n+]3[O-])CC1	1.5	1.4	100	59	53	> 15	> 15	–	–	–	–	–	–
CCN(CC)C(=O)COc1cccc2c1[n+]([O-])c1cc(C)c(C)cc1[n+]2[O-]	1.8	3.4	41	52	21	–	–	–	–	–	–	–	–
Cc1cc2c(cc1C)[n+]([O-])c1c(OC(=O)N3CCCC3)cccc1[n+]2[O-]	1.5	0.78	8.7	8.9	6.6	–	–	–	–	–	–	–	–
CCN(CC)C(=O)COc1cccc2c1[n+]([O-])c1ccccc1[n+]2[O-]	1.2	1.4	23	16	13	–	–	–	–	–	–	–	–

Structure (SMILES)	EC50 (MOLM-13 [1]) [µM]	EC50 (MOLM-13 [2]) [µM]	EC50 (H9c2 [3]) [µM]	EC50 (NRK [4]) [µM]	EC50 (NRK [5]) [µM]	selectivity ratio [6]	selectivity ratio [7]	solubility [8]	EC50 (NRK [9]) [µM]	EC50 (H9c2 [10]) [µM]	EC50 (NRK [11]) [µM]	selectivity ratio [12]	selectivity ratio [13]
O=C(Oc1cccc2c1[n+]([O-])c1ccccc1[n+]2[O-])N1CCCC1	1.5	1.2	13	21	18	–	–	–	–	–	–	–	–
CCOC(=O)Oc1cccc2c1[n+]([O-])c1cccc(OC(=O)OCC)c1[n+]2[O-]	6.1	4	> 25	> 25	> 25	–	–	–	–	–	–	–	–
CCOC(=O)COc1cccc2c1[n+]([O-])c1cc(C)c(C)cc1[n+]2[O-]	8.3	6.3	> 100	> 100	–	–	–	–	–	–	–	–	–
COc1cccc2c1[n+]([O-])c1cccc(OC(=O)N3CCN(C)CC3)c1[n+]2[O-]	1	0.98	26	39	26	> 15	> 15	–	–	–	–	–	–
Cc1cc2c(cc1C)[n+]([O-])c1c(O)cccc1[n+]2[O-]	2.8	2.3	> 50	> 50	> 50	–	–	–	–	–	–	–	–
CCOC(=O)COc1cccc2c1[n+]([O-])c1cc(Cl)c(Cl)cc1[n+]2[O-]	0.41	0.38	1.3	4.7	3.1	–	–	–	–	–	–	–	–
CC(C)(C)OC(=O)COc1cccc2c1[n+]([O-])c1ccccc1[n+]2[O-]	2.2	1.9	20	25	26	–	–	–	–	–	–	–	–
COc1cccc2c1[n+]([O-])c1cccc(O)c1[n+]2[O-]	–	–	46	76	77	–	–	–	–	–	–	–	–
CN(C)C(=O)Oc1cccc2c1[n+]([O-])c1cccc(O)c1[n+]2[O-]	0.89	0.7	64	62	49	> 15	> 15	–	–	–	–	–	–
Nc1n[n+]([O-])c2ccccc2[n+]1[O-] [TIRAPAZAMINE]	–	–	–	–	–	–	–	–	> 100	> 100	35	–	–
CCOC(=O)COc1cccc2c1[n+]([O-])c1cc(Br)c(Br)cc1[n+]2[O-]	2.4	1.6	3.3	9.7	10	–	–	–	–	–	–	–	–
CN1CCN(C(=O)Oc2cccc3c2[n+]([O-])c2ccccc2[n+]3[O-])CC1	1.5	1.9	36	37	25	–	–	–	–	–	–	–	–
CCCCC(=O)Oc1cccc2c1[n+]([O-])c1cccc(OC(=O)CCCC)c1[n+]2[O-]	36	22	> 25	–	–	–	–	–	–	–	–	–	–
CC(C)(C)C(=O)Oc1cccc2c1[n+]([O-])c1cccc(OC(=O)C(C)(C)C)c1[n+]2[O-]	11	8.9	> 25	–	–	–	–	–	–	–	–	–	–
O=C(Oc1cccc2c1[n+]([O-])c1cccc(O)c1[n+]2[O-])N1CCCC1	0.86	0.79	12	15	9.6	> 15	> 15	–	–	–	–	–	–
CN1CCN(C(=O)Oc2cccc3c2[n+]([O-])c2cc(Cl)c(Cl)cc2[n+]3[O-])CC1	0.34	0.32	3.2	15	11	–	–	–	–	–	–	> 30	45
CN1CCN(C(=O)Oc2cccc3c2[n+]([O-])c2cc4ccccc4cc2[n+]3[O-])CC1	2.8	1.8	2.3	7.5	2	–	–	–	–	–	–	–	–

From ChEMBL document CHEMBL4732033, “New prodrugs and analogs of the phenazine 5,10-dioxide natural products iodinin and myxin promote selective cytotoxicity towards human acute myeloid leukemia cells” (RSC Med Chem, 2021)
